# Experimental data published in publication PMC10508484, “Development and application of a PBPK modeling strategy to support antimalarial drug development” (CPT: Pharmacometrics & Systems Pharmacology, 2023).
# Values joined by “and” are separate entries in the source; they are usually repeats but may differ in a detail not shown here. Equal values may be shown once. Read-outs that look alike come from different tables or passages of the source.
# How the values were obtained:
# [1] = test system: CYP2B6; test: Metabolism by CYP2B6 (CLint, Vmax, Km, fm); type: in vitro ADME, human; conditions: fraction metabolised used in the PBPK model (artemether: without induction)
# Source text: (§1) In nearly all cases the fraction of systemic elimination metabolised by a given enzyme (fm) determined in vitro was unavailable in the literature.
# [2] = cited from earlier work
# [3] = test system: CYP2B6; design: method as in Honda et al., 2011 12; conditions: ref Honda et al., 2011 12; cited from earlier work
# [4] = test system: Caco-2 cells; conditions: calibrated against propranolol; plasma as medium for atovaquone and piperaquine; ref Charman et al., 2020 1; cited from earlier work
# [5] = biological target: T1, CYP3A4 (Homo sapiens, UniProt P08684)
# Source text: as §1
# [6] = 2020 1, cited from earlier work
# [7] = PBPK input; ref Charman et al., 2020 1; cited from earlier work
# [8] = cited from earlier work; for Cmax: read-out: Cmax Obs
# [9] = biological target: T1, CYP3A4; conditions: cited from earlier work
# [10] = PBPK input, cited from earlier work
# [11] = PBPK simulation of drug-drug interactions (Simcyp V19); design: species or system human
# Source text: Here, we provide three example applications where the available PBPK models were used to address questions relating to DDI assessment. […] Additional simulation methods are provided in Appendix S1.
# (§2) All simulations, including the ones performed for the applications, were run using Version 19 of the Simcyp population-based PBPK simulator (Simcyp (Certara), Sheffield, UK) and unless stated otherwise, input parameters for all drugs are as specified (Supplementary Information Table S1). All simulations were run using ten virtual trials that were matched as closely as possible to the clinical study volunteers in terms of the number of subjects, their age, the proportion of males/females and according to the same study design.
# [12] = In vitro flags for victim and perpetrator properties conferring DDI liability; type: in vitro ADME, human; conditions: in vitro flag, mainly based on in vitro determinations
# [13] = ref Charman et al., 2020 1; cited from earlier work
# [14] = cited from earlier work; for CL IV: clinically observed, ref atovaquone Lavelle et al., 1994 17, chloroquine Walker et al., 1987 29, Gustafsson et al., 1983 30, doxycycline Raghuram et al., 1982 48, Nguyen et al., 1989 49, primaquine Mihaly et al., 1985 26, quinine White et al., 1983 77, Paintaud et al., 1993 78
# [15] = PBPK simulation of plasma Cmax and AUC (Simcyp V19); design: species or system human; conditions: single oral dose named in the block
# Source text: as §2
# The available clinical PK data for performance verification of simulations was largely in healthy volunteers of either Caucasian or South-East Asian (Thai or Vietnamese) descent. For Caucasian subjects the default Sim-Healthy Volunteers virtual population was used without modification. […] The case study simulations presented in this paper used the Sim-Healthy Volunteers virtual population.
# [16] = Hepatic / HLM intrinsic clearance, enzyme not defined; conditions: human
# [17] = Blood to plasma ratio (B:P); conditions: PBPK input; 0.55 = no uptake into RBC for a haematocrit of 45%
# [18] = test system: CYP1A2; conditions: read-out: CYP1A2 IC50; ref Charman et al., 2020 1; cited from earlier work
# [19] = Fraction unbound in human liver microsomes (fumic); conditions: extrapolated from value measured at 0.4 mg/mL to 0.1 mg/mL, method of Austin et al., 2002
# [20] = 80 mg BID (Day 22-24) + rifampicin 600 mg QD (Days 1-24), HIV-infected, ref Lamorde et al., 2013 3
# [21] = 80 mg BID (Days 13-15) + efavirenz 600 mg QD (Days 1-16), ref Huang et al., 2012 4
# [22] = 80 mg SD (Day 1) + ketoconazole 400 mg SD (Day 1), 200 mg QD (Days 2-5), ref Lefevre et al., 2002 2
# [23] = ref atovaquone Mepron Prescribing Information, 2008, Nixon et al., 2013 13, Rolan et al., 1997 14, azithromycin Foulds et al., 1990 20, chloroquine Ofori-Adjei et al., 1986 27, Walker et al., 1983 28, DHA Batty et al., 2004 41 (healthy volunteers), lumefantrine CDER submission 22-269, proguanil Wattanagoon et al., 1987 63, tafenoquine Dow et al., 2020 84
# T1 sequence (P08684 whole entry): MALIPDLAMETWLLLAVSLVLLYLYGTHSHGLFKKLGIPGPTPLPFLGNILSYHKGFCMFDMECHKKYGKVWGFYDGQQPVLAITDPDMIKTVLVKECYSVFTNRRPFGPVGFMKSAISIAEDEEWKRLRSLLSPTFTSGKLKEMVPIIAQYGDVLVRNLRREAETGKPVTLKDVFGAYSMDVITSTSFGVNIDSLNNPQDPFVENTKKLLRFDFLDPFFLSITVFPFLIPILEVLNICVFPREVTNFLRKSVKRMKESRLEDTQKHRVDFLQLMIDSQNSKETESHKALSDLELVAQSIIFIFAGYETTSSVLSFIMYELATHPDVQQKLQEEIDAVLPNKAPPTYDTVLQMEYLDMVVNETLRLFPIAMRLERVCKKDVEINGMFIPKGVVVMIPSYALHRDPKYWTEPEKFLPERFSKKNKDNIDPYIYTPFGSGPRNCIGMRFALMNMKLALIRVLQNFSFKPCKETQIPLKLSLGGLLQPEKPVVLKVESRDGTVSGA
compound,measurement,setting,value
"CO[C@H]1O[C@@H]2O[C@@]3(C)CC[C@H]4[C@H](C)CC[C@@H]([C@H]1C)[C@@]24OO3 [Artemether, artemether]",fmCYP2B6,[1],47%
same,AUC ratio Obs,[2]; [20],0.11
same,Cmax ratio Obs,[2]; [20],0.18
same,AUC ratio Obs,[2]; [21],0.49
same,Cmax ratio Obs,[2]; [21],0.79
same,AUC ratio Obs,[2]; [22],2.51
same,Cmax ratio Obs,[2]; [22],2.24
same,CYP2B6 Vmax reported,[3],17.9 pmol/min/pmol
same,Km,[3],1.95 µM
same,Caco-2 (Papp A-B),[4],42.7 10-6 cm/s
same,fmCYP3A4,[5],53%
same,B:P,"[6]; PBPK input, ref artemether Colussi et al., 1999 11, atovaquone Rolan et al., 1997 14, Beerahee, 1999 16, Charman et al., azithromycin Pene Dumitrescu et al., 2013 21, DEAQ Winstanley et al., 1987 9, proguanil weighted mean Helsby et al., 1993 61, Wattanagoon et al., 1987 63",0.8
same,Log P,[7],3.7
same,AUC Obs,"[8]; 80 mg BID (Day 3 PM), 60-72 h, ref Huang et al., 2012 8",59.5 ng·h/mL
same,AUC Obs,"[8]; 80 mg BID (Day 3 PM), 62-72 h, ref Lefevre et al., 2002 7",61.4 ng·h/mL
same,Cmax Obs,"[8]; 80 mg BID (Day 3 PM), ref Huang et al., 2012 8",21.2 ng/mL
same,Cmax Obs,"[8]; 80 mg BID (Day 3 PM), ref Lefevre et al., 2002 7",30.8 ng/mL
same,AUC Obs,"[8]; 80 mg SD, Indian, 0-inf, ref Lefevre et al., 2013 6",408 ng·h/mL
same,Cmax Obs,"[8]; 80 mg SD, Indian, ref Lefevre et al., 2013 6",113 ng/mL
same,AUC Obs,"[8]; 80 mg SD, 0-inf, ref Lefevre et al., 2002 5",320 ng·h/mL
same,Cmax Obs,"[8]; 80 mg SD, ref Lefevre et al., 2002 5",104 ng/mL
same,CYP3A4 Vmax reported,[9],12.3 pmol/min/pmol
same,Km,[9],8.24 µM
same,fu,"[10]; ref Charman et al., 2020 1",0.038
same,AUC ratios Sim/Obs,"[11]; ratio of simulated to clinically observed AUC ratio, DDI of the respective line of Table S3",1.00 and 1.08 and 1.15
same,Risk as a perpetrator,[12],CYP2B6 inducer
same,Risk as a victim,[12],Substrate of CYP2B6 and CYP3A4
"O=C1C(O)=C([C@H]2CC[C@H](c3ccc(Cl)cc3)CC2)C(=O)c2ccccc21 [Atovaquone, atovaquone]",pKa(s),[13],4.28
same,Caco-2 (Papp A-B),[4],300 10-6 cm/s
same,AUC Obs,"[8]; 250 mg QD, 0-24 h, ref Thapar et al., 2002 10",254 µM·h
same,AUC Obs,"[8]; 250 mg SD, 0-inf, ref Thapar et al., 2002 10",295 µM·h
same,AUC Obs,"[8]; 500 mg SD, AUC window Unknown, ref Rolan et al., 1994 9",288000 ng·h/mL
same,Cmax Obs,"[8]; 500 mg SD, ref Rolan et al., 1994 9",4400 ng/mL
same,Cmax,"[8]; 250 mg QD, ref Thapar et al., 2002 10",13.8 µM
same,Cmax,"[8]; 250 mg SD, ref Thapar et al., 2002 10",3.7 µM
same,CL IV,[14],0.62 L/h
same,CL renal,[14]; in vivo,0 L/h
same,fe (fraction excreted unchanged in urine),[14]; in vivo,< 0.6%
same,fu,[10]; [23],0.001
same,Risk as a perpetrator,[12],BCRP inhibitor
same,Risk as a victim,[12],Cleared by biliary excretion
"CCCCN(CCCC)CC(O)c1cc(Cl)cc2c1-c1ccc(Cl)cc1/C2=C/c1ccc(Cl)cc1 (centres unmarked) [Lumefantrine, lumefantrine]",predicted AUC0-inf as % of the observed value,[15],approximately 66%
same,predicted Cmax as % of the observed value,[15],approximately 62%
same,AUC reduction,"[2]; human, in vivo",56%
same,fm additional / undefined metabolism,[16],60%
same,fmCYP3A4,[5],40%
same,CLint CYP3A4,[5]; microsomes,0.9 µL/min/pmol
same,B:P,[17],0.55
same,AUC Obs,"[8]; 480 mg BID (Day 3) PM, 60-324 h, ref Huang et al., 2012 8",418000 ng·h/mL
same,AUC Obs,"[8]; 480 mg BID (Day 3) PM, 62-480 h, ref Lefevre et al., 2002 7",383000 ng·h/mL
same,Cmax Obs,"[8]; 480 mg BID (Day 3) PM, ref Huang et al., 2012 8",11600 ng/mL
same,Cmax Obs,"[8]; 480 mg BID (Day 3) PM, ref Lefevre et al., 2002 7",10000 ng/mL
same,AUC Obs,"[8]; 480 mg SD, 0-264 h, ref Lefevre et al., 2013 6",236000 ng·h/mL
same,AUC Obs,"[8]; 480 mg SD, 0-inf, ref Lefevre et al., 2002 5",207000 ng·h/mL
same,Cmax Obs,"[8]; 480 mg SD, ref Lefevre et al., 2002 5",7910 ng/mL
same,Cmax Obs,"[8]; 480 mg SD, ref Lefevre et al., 2013 6",8920 ng/mL
same,CL PO,"[14]; clinically observed oral (in vivo) clearance, pyronaridine: blood, ref amodiaquine Winstanley et al., 1987 9, DEAQ Akande et al., 2015 8, Scarsi et al., 2014 35, Tarning et al., 2012 36, Orrell et al., 2008 37, DHA Na-Bangchang et al., 2004 42, lumefantrine Lefevre et al., 2002 52, Hoglund et al., 2015 53, mefloquine Charles et al., 2007 56, proguanil Jeppesen et al., 1997 34, pyronaridine Jittama",3.5 L/h
same,fu,[10]; [23],0.003
same,Cmax ratios Sim/Obs,"[11]; Day 7 concentrations, 480 mg BID (Day 22-24) + rifampicin 600 mg QD (Days 1-46)",0.23
same,Cmax ratios Sim/Obs,"[11]; ratio of simulated to clinically observed Cmax ratio, DDI of the respective line of Table S3",0.61 and 0.92 and 1.08 and 1.06
same,Risk as a perpetrator,[12],CYP2D6 inhibitor
same,Risk as a victim,[12],Substrate of CYP3A4
"COc1cc(NC(C)CCCN)c2ncccc2c1 (centres unmarked) [Primaquine, primaquine]",Caco-2 (Papp A-B),[4],29 10-6 cm/s
same,B:P,[6]; ref Charman et al.,0.82
same,AUC Obs,"[8]; 15 mg QD (Day 14), 0-inf, ref Ward et al., 1985 14",443 ng·h/mL
same,Cmax Obs,"[8]; 15 mg QD (Day 14), ref Ward et al., 1985 14",66 ng/mL
same,AUC Obs,"[8]; 15 mg SD, 0-inf, ref Mihaly et al., 1985 12",500 ng·h/mL
same,AUC Obs,"[8]; 15 mg SD, 0-inf, ref Ward et al., 1985 14",468 ng·h/mL
same,Cmax Obs,"[8]; 15 mg SD, ref Mihaly et al., 1985 12",53 ng/mL
same,Cmax Obs,"[8]; 15 mg SD, ref Ward et al., 1985 14",65 ng/mL
same,AUC Obs,"[8]; 30 mg SD, 0-inf, ref Hanboonkunupakarn et al., 2014 13",1130 ng·h/mL
same,AUC Obs,"[8]; 30 mg SD, 0-inf, ref Jittamala et al., 2015 15",1180 ng·h/mL
same,Cmax Obs,"[8]; 30 mg SD, ref Hanboonkunupakarn et al., 2014 13",128 ng/mL
same,Cmax Obs,"[8]; 30 mg SD, ref Jittamala et al., 2015 15",139 ng/mL
same,AUC Obs,"[8]; 45 mg SD, 0-inf, ref Mihaly et al., 1985 12",1700 ng·h/mL
same,Cmax Obs,"[8]; 45 mg SD, ref Mihaly et al., 1985 12",176 ng/mL
same,CL IV,[14],24.2 L/h
same,fe (fraction excreted unchanged in urine),"[14]; ref atovaquone Rolan et al., 1997 14, mefloquine Schwartz et al., 1982 57, primaquine White, 1985 62, proguanil (extensive metabolisers) Jeppesen et al., 1997 34, pyronaridine Wattanavijitkul, 2010 74, sulfadoxine assumed with Edstein, 1987 83",< 0.01%
same,IC50,[18],< 250 nM
same,fu,"[10]; ref Charman et al., 2020 1",0.26
same,Risk as a perpetrator,[12],CYP1A2 inhibitor
same,Risk as a victim,[12],Substrate of MAO and CYP2D6
same,fumic,[19],0.84
